Measurements as given in the supplement of paper PMC4862054.

Experiments:
Details in all cases: incubation time: 72 h
MDA-MB-231 [1] = assay: normalised viability (% of control), CellTiter-Blue; higher = more viable cells (100 = DMSO, 0 = benzethonium chloride kill control)
Method: (§1)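 DSRT, CellTiter-Blue viability, 72 h incubation. Signal is normalised to DMSO and benzethonium chloride controls. Value is the normalised response at dose 1.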

MFM-223 [2] = assay: as above
Method: as §1

DU-4475 [3] = assay: as above
Method: as §1

Hs578T [4] = assay: as above
Method: as §1

BT-474 [5] = assay: as above
Method: as §1

CAL-120 [6] = assay: as above
Method: as §1

HCC1143 [7] = assay: as above
Method: as §1

HDQ-P1 [8] = assay: as above
Method: as §1

CAL-148 [9] = assay: as above
Method: as §1

MDA-MB-468 [10] = assay: as above
Method: as §1

MDA-MB-453 [11] = assay: as above
Method: as §1

SK-BR-3 [12] = assay: as above
Method: as §1

HCC1937 [13] = assay: as above
Method: as §1

HCC1599 [14] = assay: as above
Method: as §1

CAL-51 [15] = assay: as above
Method: as §1

CAL-85-1 [16] = assay: as above
Method: as §1

MDA-MB-436 [17] = assay: as above
Method: as §1

BT-549 [18] = assay: as above
Method: as §1

MDA-MB-231 [19] = assay: normalised response (% of control), CellTiter-Glo; higher = more viable cells (100 = DMSO, 0 = benzethonium chloride kill control)
Procedure, shortened: (§2)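 A 20 µl suspension of breast cancer cells was seeded into each well of 384-well plates containing compound at 5 concentrations in 10-fold steps over a compound-specific 10,000-fold range. After 72 h incubation, CellTox Green fluorescence (485/520 nm) was read first, and CellTiter-Glo luminescence was read after 10 min at room temperature. Each plate was normalised against 0.1 % DMSO (100) and a positive kill control (0), and each value is the normalised signal at one concentration.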

MFM-223 [20] = assay: as above
Procedure, shortened: as §2

DU-4475 [21] = assay: as above
Procedure, shortened: as §2

Hs578T [22] = assay: as above
Procedure, shortened: as §2

BT-474 [23] = assay: as above
Procedure, shortened: as §2

CAL-120 [24] = assay: as above
Procedure, shortened: as §2

HCC1143 [25] = assay: as above
Procedure, shortened: as §2

HDQ-P1 [26] = assay: as above
Procedure, shortened: as §2

CAL-148 [27] = assay: as above
Procedure, shortened: as §2

MDA-MB-468 [28] = assay: as above
Procedure, shortened: as §2

MDA-MB-453 [29] = assay: as above
Procedure, shortened: as §2

SK-BR-3 [30] = assay: as above
Procedure, shortened: as §2

MCF-10A = assay: as above
Procedure, shortened: as §2

HCC1937 [31] = assay: as above
Procedure, shortened: as §2

HCC1599 [32] = assay: as above
Procedure, shortened: as §2

CAL-51 [33] = assay: as above
Procedure, shortened: as §2

CAL-85-1 [34] = assay: as above
Procedure, shortened: as §2

MDA-MB-436 [35] = assay: as above
Procedure, shortened: as §2

BT-549 [36] = assay: as above
Procedure, shortened: as §2

DU-4475 [37] = assay: normalised viability (% of control), CellTiter-Blue; higher = more viable cells (about 100 = DMSO control)
Method: (§3)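 DSRT, CellTiter-Blue viability, 72 h incubation. Signal is normalised to DMSO and benzethonium chloride controls. Value is the normalised response at dose 8.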

HDQ-P1 [38] = assay: as above
Method: as §3

CAL-148 [39] = assay: as above
Method: as §3

MDA-MB-453 [40] = assay: as above
Method: as §3

CAL-51 [41] = assay: as above
Method: as §3

CAL-85-1 [42] = assay: as above
Method: as §3

| Compound | normalised viability (MDA-MB-231 [1]) [%] | normalised viability (MFM-223 [2]) [%] | normalised viability (DU-4475 [3]) [%] | normalised viability (Hs578T [4]) [%] | normalised viability (BT-474 [5]) [%] | normalised viability (CAL-120 [6]) [%] | normalised viability (HCC1143 [7]) [%] | normalised viability (HDQ-P1 [8]) [%] | normalised viability (CAL-148 [9]) [%] | normalised viability (MDA-MB-468 [10]) [%] | normalised viability (MDA-MB-453 [11]) [%] | normalised viability (SK-BR-3 [12]) [%] | normalised viability (HCC1937 [13]) [%] | normalised viability (HCC1599 [14]) [%] | normalised viability (CAL-51 [15]) [%] | normalised viability (CAL-85-1 [16]) [%] | normalised viability (MDA-MB-436 [17]) [%] | normalised viability (BT-549 [18]) [%] | normalised response (MDA-MB-231 [19]) [%] | normalised response (MFM-223 [20]) [%] | other results |
| --- | --- | --- | --- | --- | --- | --- | --- | --- | --- | --- | --- | --- | --- | --- | --- | --- | --- | --- | --- | --- | --- |
| COc1ccc(S(=O)(=O)Nc2cccnc2Nc2ccc(O)cc2)cc1 [ABT-751] (1 nM) | 95.8 | 92.1 | 96.5 | 105 | 100 | 84.7 | 95.5 | 114 | 96.9 | 102 | 90.5 | 87.2 | 90.3 | 90 | 109 | 88.4 | 85.8 | 110 | 104 | 93.9 | normalised response (DU-4475 [21]): 103%; normalised response (Hs578T [22]): 101%; normalised response (BT-474 [23]): 98.9%; normalised response (CAL-120 [24]): 95.8%; normalised response (HCC1143 [25]): 96.1%; normalised response (HDQ-P1 [26]): 96.8%; normalised response (CAL-148 [27]): 97.6%; normalised response (MDA-MB-468 [28]): 98.4%; normalised response (MDA-MB-453 [29]): 95.2%; normalised response (SK-BR-3 [30]): 84.4%; normalised response (MCF-10A): 91.5%; normalised response (HCC1937 [31]): 96.5%; normalised response (HCC1599 [32]): 95.8%; normalised response (CAL-51 [33]): 108%; normalised response (CAL-85-1 [34]): 94.6%; normalised response (MDA-MB-436 [35]): 93%; normalised response (BT-549 [36]): 109% |
| Cc1cc(Nc2nc(N[C@@H](C)c3ncc(F)cn3)ncc2Cl)[nH]n1 [AZD1480] (0.1 nM) | 93.5 | 92.3 | 115 | 116 | 114 | 93.4 | 98.1 | 124 | 112 | 111 | 102 | 105 | 122 | 97 | 118 | 91.2 | 114 | 109 | 98.3 | 94.9 | normalised response (DU-4475 [21]): 97.2%; normalised response (Hs578T [22]): 96.8%; normalised response (BT-474 [23]): 98.7%; normalised response (CAL-120 [24]): 100%; normalised response (HCC1143 [25]): 96.7%; normalised response (HDQ-P1 [26]): 104%; normalised response (CAL-148 [27]): 95.5%; normalised response (MDA-MB-468 [28]): 94.8%; normalised response (MDA-MB-453 [29]): 101%; normalised response (SK-BR-3 [30]): 98.7%; normalised response (MCF-10A): 102%; normalised response (HCC1937 [31]): 102%; normalised response (HCC1599 [32]): 78.9%; normalised response (CAL-51 [33]): 117%; normalised response (CAL-85-1 [34]): 102%; normalised response (MDA-MB-436 [35]): 104%; normalised response (BT-549 [36]): 104% |
| CNC(=O)c1ccccc1Sc1ccc2c(/C=C/c3ccccn3)n[nH]c2c1 [Axitinib] (1 nM) | 88.4 | 95.5 | 115 | 97.6 | 93.5 | 77.4 | 101 | 73.7 | 94.9 | 102 | 95.6 | 104 | 110 | 92.4 | 101 | 86.8 | 98 | 96.2 | 111 | 107 | normalised response (DU-4475 [21]): 104%; normalised response (Hs578T [22]): 98.1%; normalised response (BT-474 [23]): 98.6%; normalised response (CAL-120 [24]): 104%; normalised response (HCC1143 [25]): 102%; normalised response (HDQ-P1 [26]): 105%; normalised response (CAL-148 [27]): 103%; normalised response (MDA-MB-468 [28]): 105%; normalised response (MDA-MB-453 [29]): 109%; normalised response (SK-BR-3 [30]): 109%; normalised response (MCF-10A): 101%; normalised response (HCC1937 [31]): 107%; normalised response (HCC1599 [32]): 103%; normalised response (CAL-51 [33]): 78.7%; normalised response (CAL-85-1 [34]): 99.8%; normalised response (MDA-MB-436 [35]): 95.3%; normalised response (BT-549 [36]): 110% |
| CC(O)(CS(=O)(=O)c1ccc(F)cc1)C(=O)Nc1ccc(C#N)c(C(F)(F)F)c1 (centres undefined) [Bicalutamide] (1 nM) | 111 | 94.8 | 112 | 112 | 113 | 96 | 102 | 100 | 105 | 110 | 97.8 | 86.9 | 77 | 93.8 | 110 | 92.2 | 99.1 | 107 | 104 | 107 | normalised response (DU-4475 [21]): 99%; normalised response (Hs578T [22]): 99%; normalised response (BT-474 [23]): 110%; normalised response (CAL-120 [24]): 107%; normalised response (HCC1143 [25]): 105%; normalised response (HDQ-P1 [26]): 102%; normalised response (CAL-148 [27]): 109%; normalised response (MDA-MB-468 [28]): 107%; normalised response (MDA-MB-453 [29]): 91.7%; normalised response (SK-BR-3 [30]): 106%; normalised response (MCF-10A): 107%; normalised response (HCC1937 [31]): 101%; normalised response (HCC1599 [32]): 109%; normalised response (CAL-51 [33]): 114%; normalised response (CAL-85-1 [34]): 104%; normalised response (MDA-MB-436 [35]): 104%; normalised response (BT-549 [36]): 111% |
| CCN(CC)CCCC(C)Nc1ccnc2cc(Cl)ccc12 (centres undefined) [Chloroquine] (0.099 nM) | 112 | 102 | 111 | 101 | 100 | 85.9 | 99.2 | 112 | 97.1 | 108 | 107 | 91.9 | 89.7 | 96.9 | 90 | 87.6 | 111 | 107 |  |  |  |
| CN(Cc1cnc2nc(N)nc(N)c2n1)c1ccc(C(=O)N[C@@H](CCC(=O)O)C(=O)O)cc1 [Methotrexate] (1 nM) | 93.5 | 99.9 | 114 | 130 | 101 | 90.5 | 95.6 | 114 | 110 | 93 | 101 | 88.7 | 84.6 | 93.6 | 106 | 95.9 | 109 | 92.2 |  |  |  |
| COc1c2occc2cc2ccc(=O)oc12 [Methoxsalen] (1 nM) | 105 | 93.1 | 96.2 | 103 | 79.9 | 107 | 101 | 106 | 112 | 109 | 103 | 104 | 93.8 | 104 | 100 | 92.3 | 116 | 97.6 |  |  |  |
| C=CCN(/C=C1/C(=O)O[C@H](COC)[C@@]2(C)C1=C(O)C(=O)C1=C2[C@H](OC(C)=O)C[C@]2(C)C(=O)CC[C@@H]12)CC=C [PX-866] (1 nM) | 97.6 | 87.4 | 118 | 98.6 | 102 | 97.7 | 99.8 | 107 | 114 | 96.6 | 101 | 96.3 | 83.9 | 104 | 112 | 97 | 94.8 | 105 |  |  |  |
| CC[C@H](CO)Nc1nc(NCc2ccccc2)c2ncn(C(C)C)c2n1 [Roscovitine] (1 nM) | 110 | 96.5 | 103 | 96.3 | 91 | 83.7 | 95.5 | 83.1 | 87.1 | 93.7 | 104 | 92.9 | 81.3 | 101 | 101 | 82.8 | 114 | 105 |  |  |  |
| CC[C@H](CO)Nc1nc(NCc2ccccc2)c2ncn(C(C)C)c2n1 [Roscovitine] (3000 nM) |  |  |  |  |  |  |  |  |  |  |  |  |  |  |  |  |  |  |  |  | normalised viability (DU-4475 [37]): 114%; normalised viability (HDQ-P1 [38]): 91%; normalised viability (CAL-148 [39]): 80.4%; normalised viability (MDA-MB-453 [40]): 86.5%; normalised viability (CAL-51 [41]): 107%; normalised viability (CAL-85-1 [42]): 82.6% |
